Data taken from patent US20230414657A1, “Novel compositions for neutralizing toxic effects of hydrogen peroxide in living cells or tissues” (Dzala LLC, priority 2020, published 2023).

Key:
C. elegans [1] = type: in vivo; conditions: 100 mM H2O2 plus supplement (10 mM GA, 100 μM glycine or 500 μM L-serine)
Method: Mitochondrial staining was performed as described previously^3,4. Briefly, L1 worms were grown on plate or in liquid culture for 2-3 days at 15° C. […] Next, the excess dye was washed off with M9 buffer and worms were incubated in 100 μl M9 for 30 min to eliminate the excess dye in the gut. Finally, worms were paralyzed with 0.5 mM Levamizol (Sigma-Aldrich), placed on slides covered with a thin layer of 2% agarose on top of which the coverslip (22×22 mm, Menzel-Glaser no. 1) was fixed using nail polish. We used a Zeiss LSM 700 inverted laser scanning confocal microscope and a Zeiss LCI Plan-Neofluar 63×/1.3 ImmCorr DIC M27 objective to image mitochondria (Zeiss, Germany). MitoTracker Red CMXRos was excited at 555 nm and the emission above 560 nm was acquired by the second PMT. Optical sections at 0.1×0.1×0.5 μm^3 x-y-z resolution were collected in […]. Final images were adjusted for intensity and merged in Fiji. No non-linear adjustments were made.

C. elegans [2] = assay: Growth rate / worm size; type: in vivo; conditions: 100 mM H2O2 plus supplement (10 mM GA, 100 μM glycine or 500 μM L-serine)
Method: Synchronized L1 worms were incubated at 15° C. on plates or in liquid culture and exposed to different conditions as indicated. Single worms were selected randomly from the plates or aliquots were taken from the liquid cultures and added to NGM plates for immediate visualization. 25 worms per treatment were measured at 24-48 hr intervals and all growth curves were done four times.

C. elegans [3] = assay: H2O2 accumulation in worms (Amplex Red); type: in vivo; conditions: co-supplemented with peroxide and GA vs peroxide alone, 3 days
Method: Hydrogen peroxide was measured using the Amplex Red hydrogen peroxide/peroxidase assay kit (Molecular Probes, Eugene, OR), adapting the protocol to C. elegans. In the presence of hydrogen peroxide, Amplex Red is oxidized by horseradish peroxidase to form a red-fluorescent oxidation product whose fluorescence intensity can be measured.
To measure ROS production from C. elegans, 5000-7000 L1 worms were exposed to each condition for 2-3 days as indicated and then washed four times in 1 ml of the reaction buffer supplied with the kit. Volumes were adjusted to 700-1200 nematodes/50 μl and 50 μl was pipetted into a 96-well plate. A total of 50 μl of the Amplex Red reaction buffer was then added to the wells, and after 1 hr fluorescence was measured with a fluorescence microplate reader using excitation at 530±12.5 nm and fluorescence detection at 590±17.5 nm. Background fluorescence, determined for a no-H2O2 control reaction, was subtracted from each value. The significance of differences between conditions was determined by an unpaired fest. GraphPadPrism 8.0 was used for these calculations. Three biological replicates were carried out for each condition.

[4] = tested on: gox-1, ghpr-1, gcst-1, mel-32 and gcs-1 genes; assay: Quantitative real-time PCR of glycolate pathway genes; type: in vivo, C. elegans
Method: The differential expression of F41E6.5 (gox-1), C31C9.2 (ghpr-1), gcst-1, mel-32 and gcs-1 genes was measured using qRT-PCR. ˜5000 L1 N2 worms were exposed to each condition for 3 days at 15° Cas described above and then washed three times with H2O. Total RNA was isolated using the RNeasy Mini Kit (Qiagen) and equal amounts of all samples were reverse transcribed with SuperScript Ill (Invitrogen) using oligo(dT) 12-18 primers. cDNA quality was tested using standard PCR. qRT-PCR was performed using pre-designed TaqMan Gene Expression Assay (ThermoFischer Scientific) with at least three samples in triplicates. For the relative quantification of gene expression levels, the 2^−ΔΔCT method and results were normalized to the expression level of the cdc-42 gene. Expression levels were averaged over technical and biological replicates, […]

[5] = tested on: living organism treated with Paraquat (PQ2+); conditions: cited from earlier work

O=C(O)CO [GA, glycolic acid]
Mitochondrial membrane potential (MMP) (C. elegans [1]): prevented this effect | Growth (C. elegans [2]): able to restore both traits | Accumulation of H2O2 (C. elegans [3]): diminished | Expression of gox-1, ghpr-1, mel-32 and gcs-1 ([4]; glycolate supplementation): moderately induced | Expression of gcst-1 ([4]; peroxide or glycolate supplementation): not significantly altered | Animal growth ([5]; PQ2+ exposure): unable to restore | OCR (Oxygen consumption Rate) ([5]; PQ2+ exposure): unable to restore | Mitochondrial membrane potential ([5]; Paraquat (PQ2+) treated): can restore
